In patent publication US20090264402A1, “NOVEL DIPHENYLAZETIDINONE SUBSTITUTED BY PIPERAZINE-1-SULFONIC ACID AND HAVING IMPROVED PHARMACOLOGICAL PROPERTIES” (SANOFI-AVENTIS DEUTSCHLAND GMBH, priority 2006, published 2009):

Test system: uptake of 14C-cholesterol in the liver
Assay: Cholesterol absorption test (14C-cholesterol uptake in the liver) in NMRI mice
Type: in vivo
Experimental: The compound of the invention of the formula I (ammonium salt) was tested for its effect using the method described below:
NMRI mice (in groups of n=4-6) are kept with a standard diet (altromin, lage (lippe)) in metabolism cages. The animals are fasted from the afternoon before administration of the radioactive tracer (^14C-cholesterol) and adapted to wire grids.
In addition, the animals are labeled with ^3H-TCA (taurocholic acid) s.c. 24 hours before the oral administration of the test meal (^14C-cholesterol in Intralipid® 20, Pharmacia-Upjohn) (e.g. 1 μCi/mouse to 5 μCi/rat).
Cholesterol absorption test: 0.25 ml/mouse Intralipid® 20 (Pharmacia-Upjohn) (spiking with 0.25 μCi ^14C-cholesterol in 0.1 mg of cholesterol) is administered orally by gavage.
Test substances are made up separately in 0.5%/(methylcellulose (Sigma)/5% Solutol (BASF, Ludwigshafen) or a suitable vehicle.
The volume for administration of the test substance is 0.5 ml/mouse. The test substance is administered immediately before the test meal (Intralipid with ^14C-cholesterol label) (cholesterol absorption test).
The livers are removed, homogenized and combusted in aliquots in an oximate (model 307, Packard) to determine the amount of ^14C-cholesterol taken up/absorbed.
The amount of ^14C-cholesterol taken up in the liver is related to the dose administered. […]

## N.O=C(Oc1ccc([C@@H]2[C@@H](CC[C@H](O)c3ccc(F)cc3)C(=O)N2c2ccc(F)cc2)c(F)c1)N1CCN(S(=O)(=O)O)CC1 [I (ammonium salt), Ammonium 4-(3-fluoro-4-{(2S,3R)-1-(4-fluorophenyl)-3-[(S)-3-(4-fluoro-phenyl)-3-hydroxylpropyl]-4-oxoazetidin-2-yl}phenoxycarbonyl)piperazine-1-sulfonate]
NMRI mice, oral, test substance given immediately before 14C-cholesterol test meal, dose which halves uptake of 14C-cholesterol in the liver relative to control
  ED50 (liver): 0.01 mg/mouse

## O=C(Oc1ccc([C@@H]2[C@@H](CC[C@H](O)c3ccc(F)cc3)C(=O)N2c2ccc(F)cc2)c(F)c1)N1CCN(S(=O)(=O)O)CC1 [I]
Ratio of ED50 (liver) values
  activity relative to comparison compound LVIII from WO 2004/000804 (times better): 10 times
